Values of other authors as cited in patent US12097208B2, “Method for treating nasal, sinonasal, and nasopharyngeal tissue infection and/or inflammation” (OTICARA, INC., priority 2019, dated 2024).

Tests used:
[1] = in vivo
[2] = tested on: Pseudomonas aeruginosa
[3] = tested on: Steptococci
[4] = tested on: Staphylococci
[5] = tested on: Gardnerella vaginalis
[6] = tested on: Corynebacteria

Biological Half Life [1]	SMILES	further results
36-54 Hours	CCC(=O)OCC(=O)[C@@]1(OC(=O)CC)[C@@H](C)C[C@H]2C3CCC4=CC(=O)C=CC4(C)[C@@]3(F)[C@@H](O)CC21C (stereo partly drawn) [Betamethasone dipropionate, 9-Fluoro-11β,17,21-trihydroxy-16β-methylpregna-1,4-diene-3,20-dione 17,21-dipropionate]	
18-36 Hours	C[C@H]1C[C@@H]2[C@H]([C@@H](O)C[C@@]3(C)[C@H]2CC[C@]3(O)C(=O)CO)[C@@]2(C)C=CC(=O)C=C12 [Methyl-prednisolone]	
	Clc1ccccc1C(c1ccccc1)(c1ccccc1)n1ccnc1 [clotrimazole]	Effect on Pseudomonas aeruginosa [2]: reduction; Antibacterial activity against Steptococci [3]: antibacterial activity; Antibacterial activity against Staphylococci [4]: antibacterial activity; Antibacterial activity against Gardnerella vaginalis [5]: antibacterial activity; Antibacterial activity against Corynebacteria [6]: antibacterial activity
8-12 Hours	C[C@]12CCC(=O)C=C1CC[C@@H]1[C@@H]2[C@@H](O)C[C@@]2(C)[C@H]1CC[C@]2(O)C(=O)CO [hydrocortisone]	
18-36 Hours	C[C@]12C=CC(=O)C=C1CC[C@@H]1[C@@H]2[C@@H](O)C[C@@]2(C)[C@H]1CC[C@]2(O)C(=O)CO [prednisolone]	
18-36 Hours	C[C@]12C=CC(=O)C=C1CC[C@H]1[C@@H]3C[C@@H](O)[C@](O)(C(=O)CO)[C@@]3(C)C[C@H](O)[C@@]12F [triamcinolone]	
